Laboratory results taken from paper PMC2216945 (The Journal of General Physiology, 1995).

Target: cystic fibrosis transmembrane conductance regulator (CFTR) (Homo sapiens, UniProt P13569)
Experiment: inside-out patch clamp, inhibition of ATP-dependent channel open probability
Assay type: cell-based

Sequence of cystic fibrosis transmembrane conductance regulator (CFTR) (P13569 whole entry): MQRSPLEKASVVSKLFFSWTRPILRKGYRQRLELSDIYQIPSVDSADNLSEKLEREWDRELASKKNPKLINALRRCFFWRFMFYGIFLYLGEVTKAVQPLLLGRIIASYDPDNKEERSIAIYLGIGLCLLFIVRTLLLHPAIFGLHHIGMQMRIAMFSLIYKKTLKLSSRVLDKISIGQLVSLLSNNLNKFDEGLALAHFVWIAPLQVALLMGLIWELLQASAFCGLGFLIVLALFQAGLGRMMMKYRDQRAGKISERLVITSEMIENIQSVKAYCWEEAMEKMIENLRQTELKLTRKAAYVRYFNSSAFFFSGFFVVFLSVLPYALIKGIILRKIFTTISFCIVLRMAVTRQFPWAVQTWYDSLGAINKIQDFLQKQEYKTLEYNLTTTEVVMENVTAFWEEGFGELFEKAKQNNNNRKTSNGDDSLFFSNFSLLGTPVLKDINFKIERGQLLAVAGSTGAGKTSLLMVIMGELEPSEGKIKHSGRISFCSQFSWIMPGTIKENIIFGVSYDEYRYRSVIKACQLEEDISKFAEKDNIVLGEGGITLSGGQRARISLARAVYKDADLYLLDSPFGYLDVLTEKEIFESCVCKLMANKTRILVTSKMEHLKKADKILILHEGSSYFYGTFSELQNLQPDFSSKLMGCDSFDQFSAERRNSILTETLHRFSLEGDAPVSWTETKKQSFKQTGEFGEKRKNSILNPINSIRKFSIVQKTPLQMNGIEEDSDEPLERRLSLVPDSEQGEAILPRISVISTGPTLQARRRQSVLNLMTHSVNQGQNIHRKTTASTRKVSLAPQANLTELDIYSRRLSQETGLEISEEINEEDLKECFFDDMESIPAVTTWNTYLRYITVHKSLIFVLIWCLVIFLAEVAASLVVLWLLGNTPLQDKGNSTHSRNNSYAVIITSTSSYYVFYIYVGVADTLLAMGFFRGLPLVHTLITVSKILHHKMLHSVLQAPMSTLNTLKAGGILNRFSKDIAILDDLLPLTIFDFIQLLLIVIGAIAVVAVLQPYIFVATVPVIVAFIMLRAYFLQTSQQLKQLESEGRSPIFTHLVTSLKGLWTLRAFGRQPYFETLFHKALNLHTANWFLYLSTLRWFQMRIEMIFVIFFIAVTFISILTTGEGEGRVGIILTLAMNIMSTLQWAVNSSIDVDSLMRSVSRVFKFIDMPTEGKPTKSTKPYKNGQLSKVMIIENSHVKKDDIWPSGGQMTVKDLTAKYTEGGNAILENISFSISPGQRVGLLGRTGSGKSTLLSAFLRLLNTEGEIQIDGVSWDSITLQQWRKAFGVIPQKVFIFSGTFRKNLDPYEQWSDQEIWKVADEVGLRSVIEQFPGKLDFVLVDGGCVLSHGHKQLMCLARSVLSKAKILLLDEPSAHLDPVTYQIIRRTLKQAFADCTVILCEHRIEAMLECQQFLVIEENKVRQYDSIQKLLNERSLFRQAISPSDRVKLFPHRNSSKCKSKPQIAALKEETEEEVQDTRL

Work on `Nc1ncnc2c1ncn2[C@@H]1O[C@H](COP(=O)(O)OP(=O)(O)O)[C@@H](O)[C@H]1O` [ADP] yielded a Ki of 16 ± 9 µM.
